# Results from patent US7731856B2, “Method and system for treating waste matter from animals, urea-rich and urea-lean waste-matter products, and uses thereof” (Waste 2 Green, LLC, priority 2003, dated 2010).
# Read-outs that look alike come from different tables or passages of the source.
# Assays:
# [1] = molecular target: urease (Canavalia ensiformis, UniProt P07374)
# Method: This can simply be studied by addition of 30 ml of methanal to the urease-contaminated and Cu^2+-contaminated reference system.
# This is simple studied by addition of 30 ml methanal to the reference system contaminated with urease, Ag^+- or Pb^2+-ions.
# [2] = system: urease activity from natural animal faeces; assay: stable experiment: collected liquid manure and faeces with inhibitor, hyperfiltration, polymerisation with methanal; design: species or system pigs; settings: for polymerisation of concentrated livestock-produced urea with methanal: 50 ml of hyperfiltration concentrate plus 30 ml methanal
# Method: Below a stable floor supporting 20 pigs to be slaughtered a large plastic foil covering the underlying floor having the shape of an inverted pyramid was placed. […] The liquid manure and faeces of the animals were collected on this foil for the next 24 hours. From this foil 20 l sample was collected (and separated) and treated in a hyperfiltration system of the type ROMEDI-250 supplied by UNION-filtration a/s, Nakskov, Denmark. The separation process was continued until a total of 15 l permeate liquid—water was withdrawn. The urea-lean fraction was disposed.
# [3] = molecular target: urease EC 3.5.1.5 (Canavalia ensiformis, UniProt P07374)
# Chain of urease EC 3.5.1.5 (P07374 whole entry, looked up): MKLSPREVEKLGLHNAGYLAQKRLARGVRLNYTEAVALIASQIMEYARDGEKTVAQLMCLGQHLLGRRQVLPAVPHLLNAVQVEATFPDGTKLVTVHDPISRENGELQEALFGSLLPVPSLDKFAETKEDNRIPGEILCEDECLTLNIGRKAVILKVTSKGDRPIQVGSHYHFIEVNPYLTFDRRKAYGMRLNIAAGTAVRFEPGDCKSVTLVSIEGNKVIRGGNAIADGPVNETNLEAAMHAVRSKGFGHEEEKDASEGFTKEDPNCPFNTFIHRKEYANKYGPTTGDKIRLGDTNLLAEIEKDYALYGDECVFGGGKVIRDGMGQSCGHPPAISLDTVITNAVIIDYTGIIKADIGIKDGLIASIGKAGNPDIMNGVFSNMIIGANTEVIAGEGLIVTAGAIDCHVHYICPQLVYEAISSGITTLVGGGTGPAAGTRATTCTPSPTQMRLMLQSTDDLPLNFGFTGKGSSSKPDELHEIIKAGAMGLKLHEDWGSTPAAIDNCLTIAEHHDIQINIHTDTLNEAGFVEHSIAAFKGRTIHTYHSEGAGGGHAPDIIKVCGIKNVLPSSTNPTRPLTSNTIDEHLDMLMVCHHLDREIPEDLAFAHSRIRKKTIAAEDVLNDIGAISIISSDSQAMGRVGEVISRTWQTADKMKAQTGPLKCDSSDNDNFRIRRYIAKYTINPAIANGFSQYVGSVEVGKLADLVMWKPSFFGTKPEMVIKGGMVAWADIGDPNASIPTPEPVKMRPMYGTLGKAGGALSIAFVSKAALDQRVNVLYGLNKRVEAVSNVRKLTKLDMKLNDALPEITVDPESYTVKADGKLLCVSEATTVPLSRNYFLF
# Method: For this example, a colourless urea reference system is defined by the following mixture: in a conical flask 10 g of synthetic urea is diluted with water to 50 ml, three drops of the acid-base indicator phenolphthalein is added.
# [4] = system: urease
# [5] = 30 ml methanal (24% by weight) added to urease-contaminated urea system containing the inhibitor
# Chain of urease (Canavalia ensiformis, UniProt P07374) (P07374 whole entry, looked up): as above
compound,measurement,setting,value
CC(=NO)C(C)=NO [dimethylglyoxime],formation of urea formaldehyde plastic in spite of urease contamination,[1]; [5],it is possible to form the urea formaldehyde plastic
same,polymerisation of concentrated livestock-produced urea with methanal,[2],can be reproduced
CC(=O)[O-].CC(=O)[O-].[Pb+2] [lead acetate],polymerisation of concentrated livestock-produced urea with methanal,[2],can be reproduced
"copper sulphate, pentahydrate",urease activity in manure system,"[2]; 5 l water and 10 g copper sulphate, pentahydrate below stable floor, 20 pigs, 24 hours collection",remove the urease activity
same,polymerisation of concentrated livestock-produced urea with methanal,[2],the polymerisation proceeded
O=[N+]([O-])[O-].[Ag+] [silver nitrate],colour shift of phenolphthalein into red (ammonia formation by urea hydrolysis),"[3]; 1 g inhibitor added to 10 g urea in 50 ml water, then 1 ml urease (540 units per ml), system also does not begin to smell of ammonia",the colour shift of phenolphthalein does not occur
same,catalytic effect of the urease enzyme on the hydrolysis of urea,[3]; ions present in the urinal system,completely lost
same,formation of urea formaldehyde plastic in spite of urease contamination,[1]; [5],it is possible to form the urea formaldehyde plastic
same,polymerisation of concentrated livestock-produced urea with methanal,[2],can be reproduced
NCCN [ethylenediamine],formation of urea formaldehyde plastic in spite of urease contamination,[1],it is possible to form the urea formaldehyde plastic
same,polymerisation of concentrated livestock-produced urea with methanal,[2],can be reproduced
NC(N)=O [urea],Km,"[4]; pH 5.5, pig manure system",~1000 µM
same,νm,"[4]; pH 5.5, pig manure system",approximately 2×10^−3 mol/dm^3/min
same,Km,"[4]; pH 7, similar manure system",~4000 µM
same,νm,"[4]; pH 7, similar manure system",approximately 11×10^−3 mol/dm^3/min
